Laboratory results as given in the supplement of paper PMC10307832.

Tests used:
Test in all cases: relative viability (nuclei count vs DMSO), 5 days (fraction); higher = more cells survive
Kobe2602 + Pictilisib = compound: C1=CC(=CC=C1NC(=S)NNC2=C(C=C(C=C2[N+](=O)[O-])C(F)(F)F)[N+](=O)[O-])F [Kobe2602] + CS(=O)(=O)N1CCN(Cc2cc3nc(-c4cccc5[nH]ncc45)nc(N4CCOCC4)c3s2)CC1 [Pictilisib] (partner 1 µM)
In short: (§1)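 Relative viability is defined as nuclei in treated wells over nuclei in vehicle wells. Duplicate plates were run and medians reported. Lung cancer cell lines in 1536-well plates were dosed by pin tool one day after seeding, with one drug or with a fixed anchor-drug dose plus five library-drug doses (not always all listed) in √10 steps, and nuclei were counted after 5 days.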

Zosuquidar + Linsitinib = compound: O[C@@H](COc1cccc2ncccc12)CN1CCN([C@@H]2c3ccccc3[C@@H]3[C@H](c4ccccc42)C3(F)F)CC1 [Zosuquidar] + C[C@]1(O)C[C@@H](c2nc(-c3ccc4ccc(-c5ccccc5)nc4c3)c3c(N)nccn32)C1 [Linsitinib] (partner 1 µM)
In short: as §1

Kobe2602 + Palbociclib = compound: C1=CC(=CC=C1NC(=S)NNC2=C(C=C(C=C2[N+](=O)[O-])C(F)(F)F)[N+](=O)[O-])F [Kobe2602] + CC(=O)c1c(C)c2cnc(Nc3ccc(N4CCNCC4)cn3)nc2n(C2CCCC2)c1=O [Palbociclib] (partner 0.5 µM)
In short: as §1

Zosuquidar + Navitoclax = compound: O[C@@H](COc1cccc2ncccc12)CN1CCN([C@@H]2c3ccccc3[C@@H]3[C@H](c4ccccc42)C3(F)F)CC1 [Zosuquidar] + CC1(C)CCC(c2ccc(Cl)cc2)=C(CN2CCN(c3ccc(C(=O)NS(=O)(=O)c4ccc(N[C@H](CCN5CCOCC5)CSc5ccccc5)c(S(=O)(=O)C(F)(F)F)c4)cc3)CC2)C1 [Navitoclax] (partner 0.5 µM)
In short: as §1

Cell Line	relative viability (Kobe2602 + Pictilisib; first compound 0.2 µM)	relative viability (Kobe2602 + Pictilisib; first compound 0.6325 µM)	relative viability (Kobe2602 + Pictilisib; first compound 6.325 µM)	relative viability (Kobe2602 + Pictilisib; first compound 20 µM)	relative viability (Zosuquidar + Linsitinib; first compound 0.01 µM)	relative viability (Zosuquidar + Linsitinib; first compound 0.03162 µM)	relative viability (Zosuquidar + Linsitinib; first compound 0.1 µM)	relative viability (Zosuquidar + Linsitinib; first compound 0.3162 µM)	relative viability (Zosuquidar + Linsitinib; first compound 1 µM)	relative viability (Kobe2602 + Palbociclib; first compound 0.2 µM)	relative viability (Kobe2602 + Palbociclib; first compound 0.6325 µM)	relative viability (Kobe2602 + Palbociclib; first compound 2 µM)	relative viability (Kobe2602 + Palbociclib; first compound 6.325 µM)	relative viability (Kobe2602 + Palbociclib; first compound 20 µM)	relative viability (Zosuquidar + Navitoclax; first compound 0.01 µM)	relative viability (Zosuquidar + Navitoclax; first compound 0.03162 µM)	relative viability (Zosuquidar + Navitoclax; first compound 0.1 µM)	relative viability (Zosuquidar + Navitoclax; first compound 0.3162 µM)	relative viability (Zosuquidar + Navitoclax; first compound 1 µM)	relative viability (Kobe2602 + Pictilisib; first compound 2 µM)
NCI-H1666	0.345	0.5	0.276	0.471	0.759	0.832	0.768	0.817	0.78	0.644	0.628	0.596	0.647	0.619	0.906	1	1.03	1.02	0.818	
HARA	0.445	0.415	0.345	0.495	0.84	0.993	0.959	1.04	1.11	0.331	0.227	0.237	0.268	0.366	1.1	1.15	1.1	1.1	1.14	0.375
NCI-H3122	0.575	0.599	0.583	0.702	1.01	0.939	0.938	1.07	0.959	0.184	0.169	0.194	0.201	0.212	1.04	0.98	1.05	1.02	1.01	0.522
201T	0.69	0.718	0.686	0.697	1.06	1.01	0.892	0.961	1.01	0.378	0.375	0.351	0.394	0.322	1.1	1.16	1.14	1.2	1.21	0.672
SK-LU-1	0.613	0.727	0.578	0.513	1.1	1.3	1.39	1.22	0.874	0.396	0.402	0.338	0.428	0.459	0.82	0.789	1.44	0.974	0.586	0.624
NCI-H1734	0.439	0.475	0.454	0.533	0.894	0.97	0.816	0.963	0.949	0.364	0.412	0.325	0.607	0.334	0.922	0.925	0.754	0.862	0.787	0.464
NCI-H1651	0.691	0.69	0.537	0.537	0.937	1.01	0.895	0.939	0.953	0.528	0.52	0.521	0.524	0.518	0.949	0.987	1.05	0.977	1.01	0.636
PC-3 [JPC-3]	0.873	0.74	0.781	0.671	0.945	0.956	0.817	0.929	0.981	0.587	0.524	0.561	0.482	0.501	0.783	0.775	0.755	0.792	0.755	0.795
NCI-H1915	0.959	0.993	0.989	1.02	1.14	1.07	1.09	1.12	1.1	0.512	0.558	0.578	0.536	0.57	0.756	0.79	0.796	0.802	0.743	0.994
COR-L23	0.766	0.695	0.837	0.832	0.98	0.959	0.945	1.03	0.902	0.31	0.296	0.275	0.318	0.333	0.999	1.14	1.11	1.02	1.02	0.811
HOP-62	0.72	1.09	0.783	0.782	0.834	1.12	1.13	0.886	0.991	0.442	0.499	0.419	0.456	0.485	0.825	1.13	0.939	0.924	0.975	0.717
NCI-H1975	0.279	0.276	0.256	0.299	0.928	0.905	1.07	1.01	1.02	0.668	0.599	0.613	0.544	0.631	1.13	1.14	1.17	1.14	0.993	0.277
BEN	0.607	0.581	0.523	0.645	1.05	0.896	0.766	0.859	0.936	0.502	0.497	0.481	0.483	0.443	0.523	0.0629	0.0532	0.0672	0.0608	0.733
EMC-BAC-2	0.503	0.6	0.569	0.558	0.803	0.843	0.782	0.858	0.797	0.522	0.543	0.494	0.566	0.525	1.19	0.795	1.05	1.18	1.12	0.548
NCI-H441	0.46	0.495	0.483	0.409	0.505	0.594	0.498		0.478	0.236	0.198	0.243	0.237	0.221	0.748	0.496	0.615		0.59	0.538
NCI-H727	0.314	0.356	0.331	0.385	0.328	0.343	0.335	0.237	0.274	0.665	0.703	0.635		0.704	0.426	0.528	0.328	0.454	0.391	0.473

Cell Line	relative viability (Kobe2602 + Pictilisib; first compound 0.2 µM)	relative viability (Kobe2602 + Pictilisib; first compound 0.6325 µM)	relative viability (Kobe2602 + Pictilisib; first compound 6.325 µM)	relative viability (Kobe2602 + Pictilisib; first compound 20 µM)	relative viability (Zosuquidar + Linsitinib; first compound 0.01 µM)	relative viability (Zosuquidar + Linsitinib; first compound 0.03162 µM)	relative viability (Zosuquidar + Linsitinib; first compound 0.1 µM)	relative viability (Zosuquidar + Linsitinib; first compound 0.3162 µM)	relative viability (Zosuquidar + Linsitinib; first compound 1 µM)	relative viability (Kobe2602 + Palbociclib; first compound 0.2 µM)	relative viability (Kobe2602 + Palbociclib; first compound 0.6325 µM)	relative viability (Kobe2602 + Palbociclib; first compound 2 µM)	relative viability (Kobe2602 + Palbociclib; first compound 6.325 µM)	relative viability (Kobe2602 + Palbociclib; first compound 20 µM)	relative viability (Zosuquidar + Navitoclax; first compound 0.01 µM)	relative viability (Zosuquidar + Navitoclax; first compound 0.03162 µM)	relative viability (Zosuquidar + Navitoclax; first compound 0.1 µM)	relative viability (Zosuquidar + Navitoclax; first compound 0.3162 µM)	relative viability (Zosuquidar + Navitoclax; first compound 1 µM)	relative viability (Kobe2602 + Pictilisib; first compound 2 µM)
LU99A	0.317	0.365	0.383	0.359	0.5	0.54	0.483	0.539	0.659	0.424	0.488	0.411	0.473	0.451	0.783	0.819	0.79	0.91	0.73	0.312
NCI-H2405	0.459	0.41	0.425	0.536	0.984	0.878	0.784	0.969	0.983	0.52	0.572	0.537	0.553	0.528	1.01	0.853	0.723	1.07	0.894	0.413
NCI-H2009	0.843	0.877	0.876	0.897	1.22	1.25	1.15	1.16	1.2	0.241	0.258	0.294	0.24	0.254	1.19	1.12	1.13	1.1	1.14	0.874
HCC-827	1	0.932	0.981	1.18	1	0.902	0.943	0.879	0.96	0.528	0.574	0.621	0.489	0.53	1.04	0.991	0.991	1.02	1.03	0.898
NCI-H838	0.393	0.489	0.422	0.418	1.01	0.981	1.02	1.09	1.06	0.196	0.215	0.199	0.246	0.199	1.25	1.22	1.16	1.26	1.17	0.426
CAL-12T	0.59	0.556	0.387	0.548	0.776	0.979	0.549	0.894	0.841	0.515	0.6	0.411	0.408	0.407	1.38	1.35	1.17	1.45	1.2	0.394
RERF-LC-KJ	0.589	0.643	0.506	0.493	0.858	0.903	0.876	0.932	0.906	0.994	1.02	0.992	0.939	0.728	0.99	0.853	0.947	1.11	0.844	0.512
NCI-H2347	0.745	0.843	0.558	0.611	0.968	1	0.834	1.01	1.06	0.422	0.435	0.403	0.438	0.421	0.891	0.686	0.583	0.931	0.944	0.716
PC-14	0.63	0.674	0.637	0.745	0.918	0.97	0.904	0.94	1.02	0.502	0.51	0.539	0.455	0.32	1.05	0.988	0.983	0.934	0.959	0.592
HCC-366	0.0894	0.176	0.141	0.211	0.641	0.682	0.641	0.597	0.783	0.377	0.344	0.35	0.384	0.395	0.97	1.18	1.02	1.01	1.09	0.0839
LCLC-97TM1	0.195	0.18	0.15	0.167	0.204	0.177		0.174	0.171	0.192	0.242		0.218	0.194	0.448	0.396		0.496	0.412	0.185
HCC-44	0.63	0.623	1.54	0.662	0.663	0.684	0.65	0.669	0.696	0.988	0.932	0.975	0.924	0.887	0.959	1.02	1.04	1.02	1.17	0.684
A-427	0.742	0.925	0.774	0.98	1.09	1.14	0.971	1.15	1.11	0.593	0.571	0.522	0.606	0.532	1.01	0.714	0.873	1.02	0.974	0.741
NCI-H23	0.47	0.581	0.516	0.497	0.601	0.449	0.483	0.504	0.675	0.559	0.568	0.446	0.522	0.544	0.765	0.96	0.746	0.79	0.862	0.491
NCI-H520	0.253	0.364	0.225	0.292	0.984	0.945	0.888	0.946	1.08	0.239	0.217	0.249	0.231	0.205	1.16	1.15	0.986	1.03	1.02	0.255
